From ChEMBL document CHEMBL1201862, “PubChem BioAssay data set” (2004)
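Results reflect a 48-hour exposure of cells in 96-well plates to compound at five concentrations. Abbreviation: GI50, concentration required for 50% inhibition of growth.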 Calls of active or inactive are those of the source. Cut-off read from the data, not from the text of the source: active = GI50 up to about 1.1 µM and inactive = higher.

Tests used:
Test in all cases: NCI anticancer screen, dose series, 48 h
786-0 = test system: 786-0
A498 = test system: A498
A549 = test system: A549
ACHN = test system: ACHN
BT-549 = test system: BT-549
CAKI-1 = test system: CAKI-1
CCRF-CEM = test system: CCRF-CEM
COLO 205 = test system: COLO 205
DLD-1 = test system: DLD-1
DMS-114 = test system: DMS-114
DMS-273 = test system: DMS-273
DU-145 = test system: DU-145
EKVX = test system: EKVX
HCC 2998 = test system: HCC 2998
HCT-116 = test system: HCT-116
HCT-15 = test system: HCT-15
HL-60 = test system: HL-60
HOP-18 = test system: HOP-18
HOP-62 = test system: HOP-62
HOP-92 = test system: HOP-92
HT-29 = test system: HT-29
Hs-578T = test system: Hs-578T
IGROV-1 = test system: IGROV-1
K562 = test system: K562
KM-20L2 = test system: KM-20L2
KM12 = test system: KM12
LOX IMVI = test system: LOX IMVI
LXFL 529 = test system: LXFL 529
M14 = test system: M14
M19-MEL = test system: M19-MEL
MCF7 = test system: MCF7
MDA-MB-231 = test system: MDA-MB-231
MDA-MB-435 = test system: MDA-MB-435
MDA-N = test system: MDA-N
MOLT-4 = test system: MOLT-4
Malme-3M = test system: Malme-3M
NCI-H226 = test system: NCI-H226
NCI-H23 = test system: NCI-H23
NCI-H460 = test system: NCI-H460
NCI-H522 = test system: NCI-H522
NCI/ADR-RES = test system: NCI/ADR-RES
OVCAR-3 = test system: OVCAR-3
OVCAR-4 = test system: OVCAR-4
OVCAR-5 = test system: OVCAR-5
OVCAR-8 = test system: OVCAR-8
PC-3 = test system: PC-3
RPMI-8226 = test system: RPMI-8226
RXF 393 = test system: RXF 393
RXF 631 = test system: RXF 631
SF-268 = test system: SF-268
SF-295 = test system: SF-295
SF-539 = test system: SF-539
SK-MEL-28 = test system: SK-MEL-28
SK-MEL-2 = test system: SK-MEL-2
SK-MEL-5 = test system: SK-MEL-5
SK-OV-3 = test system: SK-OV-3
SN12C = test system: SN12C
SNB-19 = test system: SNB-19
SNB-75 = test system: SNB-75
SNB-78 = test system: SNB-78
SR = test system: SR
SW-620 = test system: SW-620
TK-10 = test system: TK-10
U-251 = test system: U-251
UACC-257 = test system: UACC-257
UACC-62 = test system: UACC-62
UO-31 = test system: UO-31
XF498 = test system: XF498

Question: What does the source list for COCC(C#N)NC1CC(OC2CC(O)(C(=O)CO)Cc3c(O)c4c(c(O)c32)C(=O)c2c(OC)cccc2C4=O)OC(C)C1O (stereo not drawn)?
Answer: GI50 (786-0): 43.4 nM (active); GI50 (A498): 38.3 nM (active); GI50 (A549): 52.1 nM (active); GI50 (ACHN): 58.1 nM (active); GI50 (BT-549): 138 nM (active); GI50 (CAKI-1): 38.8 nM (active); GI50 (CCRF-CEM): 20.2 nM (active); GI50 (COLO 205): 48.3 nM (active); GI50 (DLD-1): 200 nM (active); GI50 (DMS-114): 36.1 nM (active); GI50 (DMS-273): 26.6 nM (active); GI50 (DU-145): 41.2 nM (active); GI50 (EKVX): 500 nM (active); GI50 (HCC 2998): 145 nM (active); GI50 (HCT-116): 38.5 nM (active); GI50 (HCT-15): 802 nM; GI50 (HL-60): 19.3 nM (active); GI50 (HOP-18): 125 nM (active); GI50 (HOP-62): 28.7 nM (active); GI50 (HOP-92): 393 nM (active); GI50 (HT-29): 151 nM (active); GI50 (Hs-578T): 161 nM (active); GI50 (IGROV-1): 40.4 nM (active); GI50 (K562): 41.5 nM (active); GI50 (KM-20L2): 191 nM (active); GI50 (KM12): 103 nM (active); GI50 (LOX IMVI): 29.2 nM (active); GI50 (LXFL 529): 83 nM (active); GI50 (M14): 134 nM (active); GI50 (M19-MEL): 52.8 nM (active); GI50 (MCF7): < 10 nM (active); GI50 (MDA-MB-231): 112 nM (active); GI50 (MDA-MB-435): 108 nM (active); GI50 (MDA-N): 97.5 nM (active); GI50 (MOLT-4): < 13.7 nM (active); GI50 (Malme-3M): 34.4 nM (active); GI50 (NCI-H226): 27.8 nM (active); GI50 (NCI-H23): 59.2 nM (active); GI50 (NCI-H460): < 10 nM (active); GI50 (NCI-H522): 32.1 nM (active); GI50 (NCI/ADR-RES): 1.82 µM (inactive); GI50 (OVCAR-3): 153 nM (active); GI50 (OVCAR-4): 282 nM (active); GI50 (OVCAR-5): 247 nM (active); GI50 (OVCAR-8): 67.6 nM (active); GI50 (PC-3): 94.2 nM (active); GI50 (RPMI-8226): 28.2 nM (active); GI50 (RXF 393): 177 nM (active); GI50 (RXF 631): 71.6 nM (active); GI50 (SF-268): 41.9 nM (active); GI50 (SF-295): 96.6 nM (active); GI50 (SF-539): 41.5 nM (active); GI50 (SK-MEL-28): 156 nM (active); GI50 (SK-MEL-2): 136 nM (active); GI50 (SK-MEL-5): 30.3 nM (active); GI50 (SK-OV-3): 86.9 nM (active); GI50 (SN12C): 42.2 nM (active); GI50 (SNB-19): 42.7 nM (active); GI50 (SNB-75): 56.4 nM (active); GI50 (SNB-78): 235 nM (active); GI50 (SR): < 11.1 nM (active); GI50 (SW-620): 33 nM (active); GI50 (TK-10): 190 nM (active); GI50 (U-251): 28.6 nM (active); GI50 (UACC-257): 91 nM (active); GI50 (UACC-62): 57.4 nM (active); GI50 (UO-31): 442 nM (active); GI50 (XF498): 42.7 nM (active)
